Common to all, as to type: cell-based, SJL mice
Assay [1] concerns encephalitogenic lymphocytes. Description: Spontaneous adhesion of encephalitogenic T cells on purified ICAM-1. The conditions noted are these: Mus musculus, Lymphocyte, 1 h; for inhibition at 5 µM: [cpd] 5 μM, read-out: Inhibition of Spontaneous Adhesion in encephalitogenic lymphocytes (% of control/non-treated cells) ICAM-1; for inhibition at 10 µM: [cpd] 10 μM; for inhibition at 10 µM / inhibition at 25 µM / inhibition at 50 µM / inhibition at 100 µM: read-out: Inhibition of Spontaneous Adhesion in encephalitogenic lymphocytes (% of control/non-treated cells) ICAM-1 (converted); for inhibition at 25 µM: [cpd] 25 μM; for inhibition at 50 µM: [cpd] 50 μM; for inhibition at 100 µM: [cpd] 100 μM. In a few lines: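 Autoreactive T cells came from SJL mice immunized with PLP139-151. Cells were pretreated for 1 h with compound at 5-100 μM or DMSO vehicle, then tested for spontaneous adhesion to purified ICAM-1 or VCAM-1. Inhibition is given as percent of vehicle control (100%), mean ± S.D. of three-four experiments.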

For assay [2], the system named is encephalitogenic lymphocytes. Description: Spontaneous adhesion of encephalitogenic T cells on purified VCAM-1. The conditions noted are these: Mus musculus, Lymphocyte, 1 h; for inhibition at 5 µM: [cpd] 5 μM, read-out: Inhibition of Spontaneous Adhesion in encephalitogenic lymphocytes (% of control/non-treated cells) VCAM-1; for inhibition at 10 µM: [cpd] 10 μM; for inhibition at 10 µM / inhibition at 25 µM / inhibition at 50 µM: read-out: Inhibition of Spontaneous Adhesion in encephalitogenic lymphocytes (% of control/non-treated cells) VCAM-1 (converted); for inhibition at 25 µM: [cpd] 25 μM; for inhibition at 50 µM: [cpd] 50 μM. On the procedure:
Spontaneous adhesion of encephalitogenic lymphocytes was measured in adhesion assays on purified ICAM-1 and VCAM-1 as previously described (Constantin G. et al., J. Immunol. 162, 1144-1149, 1999). Autoreactive T cells were obtained from SJL mice immunized with PLP139-151 as described (Piccio L. et al., J. Immunol. 168, 1940-1949, 2002). Lymphocytes were treated with test compound at concentrations between 5-100 μM for 1 h, while control/untreated cells were treated with vehicle (DMSO). Results are expressed as percentage of inhibition over control (=100%) ±S.D and are the mean of three-four experiments.
ICAM-1 and VCAM-1 are adhesion molecules from the family of immunoglobulins and control the migration of lymphocytes through the endothelium during inflammatory responses. Encephalitogenic T cells are activated lymphocytes displaying spontaneous adhesion on ICAM-1 and VCAM-1 and have increased migration capacities in inflammation sites. Spontaneous adhesion of encephalitogenic lymphocytes was measured in adhesion assays on purified ICAM-1 and VCAM-1 as described in the method.

Assay [3] concerns encephalitogenic lymphocytes. Description: Chemokine-induced adhesion of murine encephalitogenic T cells to ICAM-1. The conditions noted are these: for Block of chemokine-induced autoreactive lymphocyte adhesion, in words: 5-50 μM for 1 h, 1 μM CCL19; for Chemokine-induced Adhesion in encephalitogenic lymphocytes, Mean counts ± S.D., in presence of MIP3-β stimulation: 1 μM CCL19 (MIP-3beta); for Chemokine-induced Adhesion in encephalitogenic lymphocytes, Mean counts ± S.D., in presence of MIP3-β stimulation / Adhesion in encephalitogenic lymphocytes, Mean counts ± S.D., in absence of MIP3-β stimulation: ICAM-1. The method, boiled down: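 Murine PLP139-151-reactive T cells from immunized SJL mice were pretreated with compound (5-50 μM, 37° C., 30-60 min or 1 h), then stimulated with 1 μM CCL19 (2-3 min, static) on ICAM-1-coated glass. Bound cells counted after washing and fixation; values are mean counts ±S.D of three experiments.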

Turning to `COc1ccc(-c2c(C#N)[nH]c3cc(OC)c(OC)cc23)cc1` [Example 17], in assay [1], the inhibition at 5 µM worked out at 72.8%, the inhibition at 10 µM was 72.5%, the inhibition at 25 µM is 76% and the inhibition at 50 µM was 92%. Besides, the inhibition at 100 µM in assay [1] was 99%. Further, in assay [2], the inhibition at 5 µM came to 34%, the inhibition at 10 µM is 53%, the inhibition at 25 µM was 71.5% and the inhibition at 50 µM was 89%. The “Block of chemokine-induced autoreactive lymphocyte adhesion, in words” value (from here on “Block”) in assay [3] is listed as “almost complete block”. In addition, in assay [3] ([cpd] 5 μM), the “Chemokine-induced Adhesion in encephalitogenic lymphocytes, Mean counts ± S.D., in presence of MIP3-β stimulation” value (from here on “Chemokine-induced Adhesion”) amounted to 13.6 ± 3.5 and the “Adhesion in encephalitogenic lymphocytes, Mean counts ± S.D., in absence of MIP3-β stimulation” value (“Adhesion … in absence of MIP3-β stimulation” for short) turned out to be 2.0 ± 1.0. Moreover, in assay [3] ([cpd] 10 μM), the “Chemokine-induced Adhesion” value is reported as 10.0 ± 3.0 and the “Adhesion … in absence of MIP3-β stimulation” value worked out at 0.9 ± 0.2. Also, in assay [3] ([cpd] 25 μM), the “Chemokine-induced Adhesion” value amounted to 1.8 ± 1.0 and the “Adhesion … in absence of MIP3-β stimulation” value is on record as 0.6 ± 0.5. Moreover, in assay [3] ([cpd] 50 μM), the “Chemokine-induced Adhesion” value came out at 2.1 ± 0.9 and the “Adhesion … in absence of MIP3-β stimulation” value was 0.4 ± 0.1.
`COc1ccc(-c2c3n(c4cc(OC)c(OC)cc24)CCNC3=O)cc1` [Example 27]: in assay [1], the inhibition at 5 µM is 69%, the inhibition at 10 µM was 76%, the inhibition at 25 µM is 82% and the inhibition at 50 µM was 90%. Also, the inhibition at 100 µM in assay [1] is 99%. For the same compound, in assay [2], the inhibition at 5 µM was determined as 11%, the inhibition at 10 µM was 31%, the inhibition at 25 µM was 35.5% and the inhibition at 50 µM was 82%. Also, in assay [3], the “Block” value is listed as “almost complete block”. Moreover, in assay [3] ([cpd] 5 μM), the “Chemokine-induced Adhesion” value is listed as 17.7 ± 2.5 and the “Adhesion … in absence of MIP3-β stimulation” value was determined as 5.0 ± 2.2. In assay [3] ([cpd] 10 μM), the “Chemokine-induced Adhesion” value was found to be 18.1 ± 4.3 and the “Adhesion … in absence of MIP3-β stimulation” value is given as 1.7 ± 1.0. Also, in assay [3] ([cpd] 25 μM), the “Chemokine-induced Adhesion” value amounted to 9.3 ± 0.5 and the “Adhesion … in absence of MIP3-β stimulation” value is reported as 1.5 ± 0.1. In assay [3] ([cpd] 50 μM), the “Chemokine-induced Adhesion” value is listed as 5.1 ± 1.1 and the “Adhesion … in absence of MIP3-β stimulation” value worked out at 1.2 ± 1.1.
For the compound `COc1ccc(-c2c(C#N)n(CCCO)c3cc(OC)c(OC)cc23)cc1` [Example 44], in assay [1], the inhibition at 5 µM came out at 75%, the inhibition at 10 µM is 84%, the inhibition at 25 µM was 88% and the inhibition at 50 µM was 91.5%. In addition, the inhibition at 100 µM in assay [1] is 99%. In addition, in assay [2], the inhibition at 5 µM was found to be 29%, the inhibition at 10 µM is 39%, the inhibition at 25 µM was 43% and the inhibition at 50 µM is 84%. The “Block” value in assay [3] was “almost complete block”. Moreover, in assay [3] ([cpd] 5 μM), the “Chemokine-induced Adhesion” value is 2.1 ± 0.5 and the “Adhesion … in absence of MIP3-β stimulation” value amounted to 1.0 ± 0.9. Moreover, in assay [3] ([cpd] 10 μM), the “Chemokine-induced Adhesion” value turned out to be 3.7 ± 1.1 and the “Adhesion … in absence of MIP3-β stimulation” value stood at 0.4 ± 1.7. Also, in assay [3] ([cpd] 25 μM), the “Chemokine-induced Adhesion” value stood at 1.8 ± 0.5 and the “Adhesion … in absence of MIP3-β stimulation” value worked out at 0.4 ± 0.1. For the same compound, in assay [3] ([cpd] 50 μM), the “Chemokine-induced Adhesion” value stood at 0.1 ± 0.5 and the “Adhesion … in absence of MIP3-β stimulation” value was 0.4 ± 0.5.
